Measurements from publication PMC6701825, “Antiproliferative and Antimigratory Effects of a Novel YAP–TEAD Interaction Inhibitor Identified Using in Silico Molecular Docking” (Journal of Medicinal Chemistry, 2019).
“Also recorded” adds a separate entry of the source.

Legend:
CTGF promoter [1] = experiment: CTGF-luciferase reporter in HeLa cells; format: cell-based, human; conditions: 6 h, indicated concentrations
Text: (§1) Activation of TEAD transcription factors in response to YAP binding induces the expression of many genes that encode proteins known to be involved in promoting cell proliferation and migration (see Supplement Figure 14). The best characterized TEAD target genes associated with the promotion of cell proliferation and migration are CCN1 and CTGF.[39],[59],[60] […] We therefore tested whether CPD3 inhibited the promoter activity of known TEAD target genes, CCN1 and CTGF, in the HeLa transformed cell line and primary rat VSMCs (RaVSMCs). Cells were transfected with plasmids expressing bioluminescent firefly luciferase reporter genes under the control of either the CCN1 or CTGF promoter regions. […] As both CCN1 and CTGF are classical TEAD target genes, this is consistent with the inhibition of TEAD activity by CPD3.
TNT1-minP reporter containing the Troponin-T minimal promoter was generated by digesting 8xGTIIC-luciferase plasmid (Addgene #34615) with Kpn1 and BglII to remove the TEAD elements, followed by blunt end re-ligation. A 2.177 kb fragment of the human CCN1 promoter containing two proximal TEAD elements (Hg19;chr1:86044316–chr1:86046493) was described previously[39] and cloned into pGL4-luciferase (Promega). […]

[2] = test system: TEAD-dependent transcriptional activity; experiment: 8xTEAD secreted nanoluciferase (TEAD-NLUC) reporter assay in HeLa cells; format: cell-based, human; conditions: HeLa TEAD-NLUC, 6 h
Text: The shortlisted sets of 16 compounds were first assayed for their ability to inhibit TEAD-dependent transcriptional activity in HeLa cells that had been transduced with a recombinant lentiviral vector expressing secreted bioluminescent nanoluciferase (NLUC) reporter gene enzyme, which is expressed under the control of a promoter region containing eight TEAD DNA-binding elements (TEAD-NLUC).
Compounds were initially screened for ability to inhibit TEAD-dependent transcriptional activity in HeLa cells transduced with a lentiviral vector expressing secreted nanoluciferase under the control of multimerized TEAD consensus elements (5′-[…]-3′). 8xTEAD NanoLuc was generated by cloning the 8xTEAD promoter from the 8xTEAD-Luc plasmid (Addgene #34615) into the pENTR gateway entry vector (Promega). This was then recombined into pLNT-sec-Nluc-2A-eGFP destination vector (supplied by Tristan McKay; University of Manchester). Lentiviruses were generated by Viafect-mediated co-transfection of pLNT8x-TEAD-sec-Nluc-2A-eGFP, Δ8.9, and VSV-G vectors into HEK293T cells (ATCC), and lentiviral-containing culture supernatants were used to infect HeLa cells in the presence of 6 μg/mL polybrene. For compound screening, 8xTEAD NanoLuc-transduced HeLa cells were seeded at 2 × 10^4 cells/well in 96-well plates. After 48 h, the cells were washed in PBS and incubated with test compounds at the indicated concentrations for 2 h. The cells were washed again in PBS and incubated with the compound for a further 4 h. Conditioned culture medium (50 μL) was assayed for secreted nanoluciferase activity using NanoGlo activity assays kit (Promega) and a Glomax Discover luminometer.

CTGF promoter [3] = experiment: CTGF-luciferase reporter in RaVSMCs; format: cell-based, rat
Text: as §1
Figure 9 Compound 3.1 inhibits TEAD target gene expression, cell proliferation, and cell migration in RaVSMCs. […] Total RNA was analyzed for mRNA levels of TEAD-target genes (D) or constitutive housekeeping genes (E) by qRT-PCR. […] Total cell lysates were analyzed for CCN1 protein expression by Western blotting (F). […] RaVSMCs (I) or HuVSMC (J) were treated with indicated concentrations of compound 3.1 and cell migration quantified using IncuCyte real time migration assay (n = 4). […]

nano-luciferase enzyme = molecular target: T1, nano-luciferase enzyme (Oplophorus gracilirostris, UniProt Q9GV45, A31E/A60N/A81I/F95D/I117V/K70R/L54V/L99Q/M102K/N193R/P142E/Q151K/Q38R/Q45L/V71I/Y165I); experiment: Direct inhibition of nanoluciferase enzyme in conditioned media; format: biochemical; conditions: conditioned media containing nano-luciferase, indicated concentrations
T1 construct: heterologous secretion signal (sec-Nluc) (N); expressed in transfected cells; probably the TEAD-NLUC HeLa reporter cells
Protocol: Cell conditioned media containing nano-luciferase enzyme was incubated with the indicated
concentrations of CPD3 (A) or CPD3.1 (B) and nano-luciferase activity assayed.
(§2) (1 picture or pasted object on this page, not shown here)

[4] = test system: TEAD target genes (CCN1, CTGF, PAI1, THBS, MAYDM, MYOC); experiment: qRT-PCR of TEAD target gene mRNA in RaVSMCs; format: cell-based, rat
Protocol: Figure 9 Compound 3.1 inhibits TEAD target gene expression, cell proliferation, and cell migration in RaVSMCs. RaVSMCs stably transduced with TEAD-NLUC (A) or transiently transfected with CCN1-LUC or CTGF-LUC were treated with the indicated concentrations of compound 3.1 for 6 hr. Cell conditioned media (A) or cell lysates (B−C) were assayed for nanoluciferase or fire-fly luciferase activity, respectively. VSMC were treated with 60 μM compound 3.1 for 6 h (n = 3). Total RNA was analyzed for mRNA levels of TEAD-target genes (D) or constitutive housekeeping genes (E) by qRT-PCR. VSMC were treated with indicated concentrations of compound 3.1 for 16 hr (n = 4). Total cell lysates were analyzed for CCN1 protein expression by Western blotting (F). RaVSMCs (G) or HuVSMC (H) were treated with indicated concentrations of compound 3.1 for 18 h followed by labeling in 10 μM EdU for a further 6 h (n = 4). RaVSMCs (I) or HuVSMC (J) were treated with indicated concentrations of compound 3.1 and cell migration quantified using IncuCyte real time migration assay (n = 4).
Quantitative reverse transcription (RT)-PCR: quantification of mRNA was performed by RT-qPCR, as described previously.[39] Total RNA was extracted using Ambion PureLink kits (Thermo Fisher) and reverse-transcribed using QuantiTect RT kit (Qiagen) and random primers. Quantitative PCR was performed using Roche SYBR Green using a Qiagen Roto-GeneRotor-Gene Q PCR machine (20 seconds@95 °C; 20 seconds @62 °C; 20 seconds@72 °C). Data were normalized to nonstimulated controls. Primer sequences are described in Supplement Table 2.
Supplement Figure 11: Dose repose analysis of CPD3.1 on CCN1, CTGF and THBS
RaVSMC were treated with the indicated doses of CPD3.1 and total RNA analysed for
levels of steady state mRNA of CCN1, CTGF and THBS mRNA using qRT-PCR (n=4).
as §2

[5] = RaVSMC dose-response, Supplement Figure 11

T1 sequence (Q9GV45 other isoform, or with tags, fused parts or gaps with the stated changes): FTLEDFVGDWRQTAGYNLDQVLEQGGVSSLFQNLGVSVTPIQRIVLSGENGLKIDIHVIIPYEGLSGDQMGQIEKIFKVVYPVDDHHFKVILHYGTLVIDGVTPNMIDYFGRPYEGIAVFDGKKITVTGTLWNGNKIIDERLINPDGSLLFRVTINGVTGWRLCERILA

| Structure (SMILES) | CTGF-luciferase reporter gene activity (CTGF promoter [1]) | concentration at which TEAD-dependent NLUC secretion was significantly inhibited [2] [µM] | IC50 (CTGF promoter [3]; Rattus norvegicus, 6 hr, read-out: IC50, CTGF-LUC (as printed in Figure 9C)) [µM] | direct inhibitory effect on NLUC enzymatic activity (nano-luciferase enzyme) | concentration giving inhibition of CCN1 mRNA [4, 5] [µM] | concentration giving inhibition of CTGF mRNA [4, 5] [µM] | concentration giving inhibition of THBS mRNA [4, 5] [µM] | steady-state mRNA levels of TEAD target genes (CCN1, CTGF, PAI1, THBS, MAYDM, MYOC) ([4]; VSMC, 60 μM, 6 h) | IC50 ([2]; Homo sapiens, HeLa, read-out: IC50, TEAD-dependent NLUC secretion) [µM] | CTGF-luciferase reporter gene activity (CTGF promoter [3]; 6 h, indicated concentrations) | steady-state mRNA levels of endogenous CCN1 and CTGF genes ([4]; RaVSMCs, Supplement Figure 4) |
| --- | --- | --- | --- | --- | --- | --- | --- | --- | --- | --- | --- |
| Cc1ccc2c(c1)c1c3n2CCNC3CCC1 (centres unmarked) [CPD3.1] | dose-dependent inhibition | 20 | 58 | do not non-specifically inhibit nano-luciferase; also recorded: without having any direct inhibitory effect on NLUC activity | 20 | 40 | 10 | significantly inhibited | – | – | – |
| Cc1ccc2c(c1)c1c3n2CCN(CC(O)CN2CCN(C(=O)c4ccco4)CC2)C3CCC1 (centres unmarked) [CPD3] | strong and significant dose-dependent inhibition | 60 | – | do not non-specifically inhibit nano-luciferase; also recorded: did not affect cell viability (Supplement Figure 6) or have any direct inhibitory effect on NLUC enzymatic activity | – | – | – | – | > 110 | strong and significant dose-dependent inhibition | significantly inhibited |
